Assays:
[1] = Inhibition of maize HD2; parameters: species or system Zea mays
[2] = target: T1, Protein deacetylase HDAC6 (Homo sapiens, UniProt Q9UBN7); assay: Inhibition of HADC6 (unknown origin)
T1 sequence (Q9UBN7 whole entry): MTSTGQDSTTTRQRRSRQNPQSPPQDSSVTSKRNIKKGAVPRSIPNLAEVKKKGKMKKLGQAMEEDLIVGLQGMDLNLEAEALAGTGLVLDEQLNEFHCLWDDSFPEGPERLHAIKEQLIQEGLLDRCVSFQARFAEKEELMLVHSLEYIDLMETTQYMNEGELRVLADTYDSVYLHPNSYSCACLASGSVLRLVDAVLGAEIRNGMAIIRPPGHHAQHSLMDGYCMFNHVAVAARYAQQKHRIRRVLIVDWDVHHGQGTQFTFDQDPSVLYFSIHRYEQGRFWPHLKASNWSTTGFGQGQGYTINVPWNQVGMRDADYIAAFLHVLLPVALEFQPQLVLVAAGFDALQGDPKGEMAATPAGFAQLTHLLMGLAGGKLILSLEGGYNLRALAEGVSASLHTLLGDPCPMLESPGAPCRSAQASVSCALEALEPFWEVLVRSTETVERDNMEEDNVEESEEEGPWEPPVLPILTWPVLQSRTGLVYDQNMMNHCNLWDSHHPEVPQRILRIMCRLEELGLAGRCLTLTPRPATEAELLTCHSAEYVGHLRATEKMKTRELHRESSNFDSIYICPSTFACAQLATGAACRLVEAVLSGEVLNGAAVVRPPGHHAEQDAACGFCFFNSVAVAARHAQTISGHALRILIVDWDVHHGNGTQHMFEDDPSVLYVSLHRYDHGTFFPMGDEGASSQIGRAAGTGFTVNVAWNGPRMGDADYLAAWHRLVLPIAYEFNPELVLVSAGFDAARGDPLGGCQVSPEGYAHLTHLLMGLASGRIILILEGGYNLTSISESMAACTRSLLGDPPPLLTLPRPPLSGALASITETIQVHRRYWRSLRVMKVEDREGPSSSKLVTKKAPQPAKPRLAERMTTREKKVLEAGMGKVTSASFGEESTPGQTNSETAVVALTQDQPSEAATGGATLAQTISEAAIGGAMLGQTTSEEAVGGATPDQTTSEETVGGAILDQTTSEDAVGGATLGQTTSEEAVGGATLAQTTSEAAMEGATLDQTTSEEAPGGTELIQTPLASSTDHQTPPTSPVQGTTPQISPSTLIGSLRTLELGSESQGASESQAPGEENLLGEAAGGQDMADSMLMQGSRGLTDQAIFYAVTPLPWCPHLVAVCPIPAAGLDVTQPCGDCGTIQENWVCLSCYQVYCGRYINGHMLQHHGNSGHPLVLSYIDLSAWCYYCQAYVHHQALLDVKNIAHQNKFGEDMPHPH

Histone deacetylase 1 = Histone deacetylase 1 (Homo sapiens, UniProt Q13547); assay: Inhibition of HADC1 (unknown origin)
[3] = Inhibition of maize HD1-A; parameters: species or system Zea mays

Histone deacetylase 1, sequence (Q13547 whole entry): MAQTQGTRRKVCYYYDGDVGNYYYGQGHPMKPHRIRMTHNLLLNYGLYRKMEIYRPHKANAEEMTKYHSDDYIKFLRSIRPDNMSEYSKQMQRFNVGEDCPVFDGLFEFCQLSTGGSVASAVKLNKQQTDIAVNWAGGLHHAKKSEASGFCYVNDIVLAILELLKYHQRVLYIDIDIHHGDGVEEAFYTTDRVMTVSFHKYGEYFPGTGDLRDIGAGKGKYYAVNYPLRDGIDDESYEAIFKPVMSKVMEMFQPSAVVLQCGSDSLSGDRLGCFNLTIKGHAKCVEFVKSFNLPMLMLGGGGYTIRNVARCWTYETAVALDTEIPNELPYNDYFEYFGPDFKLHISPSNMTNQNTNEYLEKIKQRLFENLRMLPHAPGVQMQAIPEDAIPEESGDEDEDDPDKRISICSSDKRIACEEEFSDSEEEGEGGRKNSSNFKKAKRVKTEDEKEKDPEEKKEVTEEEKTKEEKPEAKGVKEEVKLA

| IC50 [2] | IC50 (Histone deacetylase 1) | IC50 [3] | SMILES | IC50 [1] |
| --- | --- | --- | --- | --- |
|  |  |  | CN(C)c1ccc(C(=O)NCCCCCCC(=O)NO)cc1 | 0.1 µM |
| 1.6 µM | 0.0033 µM |  | CC(C)[C@H]1NC(=O)[C@H]2CSSCC/C=C/[C@H](CC(=O)N[C@H](C)C(=O)N2)OC(=O)C[C@@H]1O [OBP-801] |  |
| 0.003 µM | 4.32 µM |  | Cc1nc2ccccc2n1Cc1ccc(C(=O)NO)cc1F |  |
|  |  | 0.1 µM | Cn1cc(/C=C/C(=O)c2cccc(F)c2)cc1/C=C/C(=O)NO |  |
|  | 40 µM |  | CCCC(CCC)C(=O)O [VALPROIC ACID] |  |
